Values of other authors, collected in patent US12337056B2, “Topical compositions and methods” (MARY KAY INC., priority 2018, dated 2025).

Conditions: HyaClear Solution Presentation, Tri-K Industries, 2016

Sodium hyaluronate
skin barrier function: improve skin barrier function | skin desquamation: reduce skin desquamation | skin lubricity: increase skin lubricity | skin moisturization: increase skin moisturization | skin roughness: reduce skin roughness
